According to patent US9499553B2 (CHUGAI SEIYAKU KABUSHIKI KAISHA, priority 2013, dated 2016):

Legend:
human PiT-1 = biological target: T1, human PiT-1 (Homo sapiens, UniProt Q8WUM9); assay: Inhibitory effect on 33PO4 uptake into human PiT-1-expressing CHO cells; type: cell-based; details: compound 0.24, 1.2, 6 or 30 μM, pH 6.5, read-out: IC50 against 33PO4 uptake into human PiT-1-expressing cells
T1 construct: expressed in transfected cells; host or cells: CHO cells
T1 sequence (Q8WUM9 1-679): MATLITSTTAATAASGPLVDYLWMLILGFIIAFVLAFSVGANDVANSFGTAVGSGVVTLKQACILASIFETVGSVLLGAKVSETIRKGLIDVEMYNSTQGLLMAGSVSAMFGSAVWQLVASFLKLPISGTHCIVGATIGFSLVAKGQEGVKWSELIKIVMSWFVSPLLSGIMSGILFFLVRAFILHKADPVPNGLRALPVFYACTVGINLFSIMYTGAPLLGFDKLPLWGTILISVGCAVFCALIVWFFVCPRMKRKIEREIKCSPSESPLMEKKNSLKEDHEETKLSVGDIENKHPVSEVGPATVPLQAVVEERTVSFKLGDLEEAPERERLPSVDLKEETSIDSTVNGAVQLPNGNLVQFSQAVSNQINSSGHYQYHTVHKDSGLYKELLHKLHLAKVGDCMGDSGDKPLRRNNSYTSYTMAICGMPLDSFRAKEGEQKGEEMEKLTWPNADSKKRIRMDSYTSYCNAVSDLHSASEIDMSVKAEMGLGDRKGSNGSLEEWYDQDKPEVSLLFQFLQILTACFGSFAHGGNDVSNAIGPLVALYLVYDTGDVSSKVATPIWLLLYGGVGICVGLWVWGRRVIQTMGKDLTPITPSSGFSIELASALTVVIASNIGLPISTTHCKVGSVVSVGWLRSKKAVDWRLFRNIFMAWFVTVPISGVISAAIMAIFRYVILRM
Procedure, shortened: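 CHO cells transiently transfected with human PiT-1 or empty vector were exposed to compound, then to 33PO4 at room temperature and washed ice-cold; uptake counted by scintillation. Inhibition computed on PiT-1-specific uptake (PiT-1 minus vector cells) relative to DMSO wells.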

human PiT-2 = biological target: T2, human PiT-2 (Homo sapiens, UniProt Q08357); assay: Inhibitory effect on 33PO4 uptake into human PiT-2-expressing CHO cells; type: cell-based; details: pH 6.5, read-out: IC50 against 33PO4 uptake into human PiT-2-expressing cells
T2 construct: expressed in transfected cells; host or cells: CHO cells
T2 sequence (Q08357 1-652): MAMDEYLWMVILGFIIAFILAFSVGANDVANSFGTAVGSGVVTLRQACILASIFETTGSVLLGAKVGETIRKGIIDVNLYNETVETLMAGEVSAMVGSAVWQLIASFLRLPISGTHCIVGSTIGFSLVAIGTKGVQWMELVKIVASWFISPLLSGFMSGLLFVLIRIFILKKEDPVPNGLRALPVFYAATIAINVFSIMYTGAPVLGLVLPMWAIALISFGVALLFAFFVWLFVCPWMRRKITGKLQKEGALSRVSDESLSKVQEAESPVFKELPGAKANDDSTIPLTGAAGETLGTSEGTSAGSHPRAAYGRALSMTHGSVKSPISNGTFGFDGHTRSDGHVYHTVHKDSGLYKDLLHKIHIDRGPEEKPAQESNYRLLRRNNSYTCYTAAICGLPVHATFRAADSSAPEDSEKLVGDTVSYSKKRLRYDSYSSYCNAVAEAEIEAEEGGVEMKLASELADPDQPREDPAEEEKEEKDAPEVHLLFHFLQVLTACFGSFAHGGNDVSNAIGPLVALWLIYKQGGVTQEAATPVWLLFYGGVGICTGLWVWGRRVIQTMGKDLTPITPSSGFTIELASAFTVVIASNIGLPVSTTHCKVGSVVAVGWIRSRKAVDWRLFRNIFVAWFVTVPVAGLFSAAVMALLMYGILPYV
Procedure, shortened: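 CHO cells transfected with human PiT-2 or empty vector, then exposed to ^33PO4 at room temperature after compound preincubation. Uptake counted by scintillation. Inhibition computed from PiT-2 minus vector-cell uptake, relative to the DMSO control.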

[1] = system: chronic kidney disease model rat; assay: Suppressive effect on rise in serum creatinine concentration of chronic kidney disease model rat; type: in vivo; details: dosage 0.3% in feed, 14 weeks
Excerpt: Test Example 7: Suppressive Effect on Rise in Serum Creatinine Concentration of Chronic Kidney Disease Model Rat
A group given feed non-supplemented with the test compound was used as a reference pathological group, and a group neither subjected to the kidney removal nor antibody administration and given feed non-supplemented with the test compound was used as a normal group. Fourteen weeks after the start of administration of the test compound, blood was collected from the abdominal aorta and serum was collected. As an indicator of renal damage, serum creatinine concentrations were measured by an enzyme assay (creatinase-sarcosine oxidase-POD method). The rate of suppression of a rise in serum creatinine concentration was determined according to the following expression: Rate (%) of suppression of a rise in serum creatinine concentration=(1−[(Serum creatinine concentration of the test compound-treated pathological group)−(Serum creatinine concentration of the normal group)]/[(Serum creatinine concentration of the reference pathological group)−(Serum creatinine concentration of the normal group)])×100

IC50 (human PiT-1): 2200 nM | IC50 (human PiT-2): 2600 nM
Structure (SMILES): COCCN(C)CCOc1ccc(CN2C(=O)C(C(=O)Nc3ccc(C(F)(F)F)cc3-c3cc(C(F)(F)F)ncn3)=C(O)C3(CCCC3)N2C)c(F)c1F [Example 14, 7-[[2,3-Difluoro-4-[2-[2-methoxyethyl(methyl)amino]ethoxy]phenyl]methyl]-10-hydroxy-6-methyl-8-oxo-N-[4-(trifluoromethyl)-2-[6-(trifluoromethyl)pyrimidin-4-yl]phenyl]-6,7-diazaspiro[4.5]dec-9-ene-9-carboxamide]
Rate of inhibition (%) (suppression of a rise in serum creatinine concentration) [1]: 24%
